Tested on: COLO205 cells
Assay: Phospho-proteome profiling (CDK-motif antibody enrichment, LC-MS/MS)
Assay type: cell-based, human
Details: for CMPD 1/DMSO / MEAN MS SIGNAL CMPD 1 6 H: 6 H
Excerpt: We phospho-proteome profiled COLO205 cells to identify Mediator kinase substrates following chemical inhibition of Mediator kinase activity. Given the confirmed CDK8/19 selectivity of our compounds in binding and enzymatic activity assays, we employed a pool of antibodies selective for the proline-rich motifs phosphorylated by the CDK family to enrich potential CDK8/19 substrates for LC-MS/MS analysis.
Adherent COLO205 cells were lysed with a urea buffer, lysates were reduced with DTT, alkylated with iodoacetimide and digested with trypsin-tosylphenylalanyl chloromethyl ketone. Digested peptides were immunoprecipitated using a pool of motif antibodies from Cell Signaling Technologies (US) comprising: phospho-MAPK substrate (PXS*P or S*PXR/K, #2325, RRID:AB_331820), phospho-CDKs substrate ((K/H)-S*P, #2324; RRID:AB_2244779), phospho-PLK binding motif (ST*P, #5243; RRID:AB_10891778) and phospho-tPE motif (T*PE, #3004; RRID:AB_10890649)-of phospho-MAPK (2325), phospho-CDK (2324), phospho-PLK (5243) and phospho-tPE (C3004) motif-recognizing antibodies immobilized onto protein A/G beads. Immunoprecipitated peptides were analyzed using an LTQ-Orbitrap-Velos. Sequences were assigned to the MS/MS spectra and evaluated using SEQUEST 3G and SORCERER 2 (Sage-N Research v4.0, Milpitas). Quantitative data was evaluated and clustered in Spotfire Decision Site (www.spotfire.tibco.com) and normalized using quartile normalization. Functional annotation and pathway analysis used DAVID (https://david.ncifcrf.gov/). […]
Phospho-proteome analyses
Adherent COLO205 cells were washed with PBS and cells lysed using urea lysis buffer (9 M Urea, 20 mM HEPES, pH 8.0, 1 mM beta-glycerophosphate, 1 mM sodium vanadate, 2.5 mM sodium pyrophosphate) and stored at -80 °C prior to analysis. The supernatants were reduced with 100 mM DTT for 30 minutes at 55 °C, followed by alkylation with 50 mM iodoacetimide for 15 minutes at ambient temperature in the dark.
The samples were diluted in 20 mM HEPES, pH 8.0 and digested overnight with 10 ug/mL trypsin-tosylphenylalanyl chloromethyl ketone in 1 mM HCl. Digested peptides were acidified with 1% formic acid and then desalted over 360-mg SEP PAK C18 columns (Waters, UK). Peptides were eluted with 40% acetonitrile in 0.125% formic acid, dried under a vacuum and the lyophilised peptides used for immunoprecipitation.
A pool of motif antibodies from Cell Signaling Technologies (US) comprising: phospho-MAPK substrate (PXS*P or S*PXR/K, #2325, RRID:AB_331820), phospho-CDKs substrate ((K/H)S*P, #2324; RRID:AB_2244779), phospho-PLK binding motif (ST*P, […]
RRID:AB_10890649), were immobilised onto protein A/G beads overnight at 4 °C. The lyophilised peptides were resuspended in MOPS buffer (50 mM MOPS, pH 7.2, 10 mM KH2PO4, 50 mM NaCl) and centrifuged for 5 mins at 13,500 rpm in an Eppendorf benchtop microcentrifuge. The supernatants were incubated with the motif-bound beads for 2.5 hours at 4 °C . The beads were harvested by centrifugation at 4000 rpm in an Eppendorf benchtop microcentrifuge for 5 mins, washed with MOPS buffer twice and washed again 5 times with deionised water. The peptides were eluted off the beads using 0.125% formic acid, were desalted and dried under a vacuum. The lyophilised immunoprecipitated peptides were resuspended in 0.125% formic acid and separated on a capillary column packed with Magic C18 AQ reversed-phase resin.
Peptides were eluted using a 72-minute linear gradient of acetonitrile in 0.125% formic acid delivered at 280nL/min. Samples were analysed using an LTQ-Orbitrap-Velos.
MS Parameter Settings were: MS Run Time 96 min, MS1 Scan Range (300.0 – 1500.00), Top 20 MS/MS (Min Signal 500, Isolation Width 2.0, Normalized Coll.
Charge State Rejection Enabled, Charge State 1+ Rejected, Dynamic Exclusion Enabled, Repeat Count 1, Repeat Duration 35.0, Exclusion List Size 500, Exclusion Duration 40.0, Exclusion Mass Width Relative to Mass, Exclusion Mass Width 10ppm). […]

[1] = AHCTF1 peptide 1205/1240 - STlrSTplaSpspSpgrSpqr - 1225/1265
[2] = AHNAK peptide 5778 - hrSnSfSderefSgpsTpTglefeggevsleggk - 5811
[3] = AKNA peptide 429 - vpqefqTpeqatelvhqlqedyhr - 452
[4] = ANLN peptide 381 - cqehSkeSparsTphrTpiiTpntk - 405
[5] = ARHGAP19 peptide 443 - knpTpesvaigelk - 456
[6] = ARID4B peptide 922/1008 - kaefpssgsnsvlnTpptTpespssvtvtegsr - 954/1040
[7] = ATN1 peptide 158 - pyhppplfppSpqppdstpr - 177
[8] = BAP1 peptide 513 - sanptrpsSpvtshisk - 529
[9] = BCL11B peptide 367 - lrelagnSSTpppvSpgrgnpmhr - 390
[10] = CC2D1A peptide 200 - gpasTpTySpaptqpapr - 217
[11] = CDT1 peptide 72 - lsvdevsSpstpeapdipacpspgqk - 97
[12] = CDT1 peptide 72 - lsvdevsspsTpeapdipacpSpgqk - 97
[13] = CHAMP1 peptide 198 - lapvpspepqkpapvSpesvk - 219
[14] = CHD4 peptide 1530 - mSqpgSpSpkTpTpSTpgdTqpnTpapvppaedgik - 1565
[15] = CHD4 peptide 1531 - SqpgSpSpkTptpstpgdtqpntpapvppaedgik - 1565
[16] = CHD4 peptide 1540 - TpTpSTpgdtqpnTpapvppaedgik - 1565
[17] = CHD4 peptide 1540 - TptpStpgdtqpnTpapvppaedgikieenslk - 1572
[18] = ECT2 peptide 403 - krpSaehSlSigSlldiSnTpeSsinYgdtpk - 434
[19] = EEF1G peptide 379 - gqelafplSpdwqvdyesytwr - 100
[20] = EGR1 peptide 6 - aemqlmsplqisdpfgsfphSptmdnypk -34
[21] = EGR1 peptide 6 - aemqlmsplqisdpfgsfphspTmdnypk - 34
[22] = EPC2 peptide 343 - aealitsqqpTpetlpvink - 362
[23] = EZH2 peptide 46 - grlpnnssrpstpTinvlesk - 376
[24] = FAM122A peptide 69 - hglllpaSpvr - 79
[25] = FBLIM1 peptide 40 - grpweapapmkTpeaglagrpspwttpgr - 68
[26] = FBXW9 peptide 43 - sglafsrpsqlsTpaaSpSasepr - 66
[27] = FBXW9 peptide 48 - srpsqlStpaaSpsasepr - 66
[28] = FOSL1 peptide 235 - ftypStpepcasahr - 249
[29] = GATA6 peptide 26 - afparepStppSpisssssscsr - 48
[30] = GOLGA4 peptide 7 - qkiseeqqqlqqalapaqassnSStptrm#rsr - 39
[31] = HCFC1 peptide 1483 - avttvtqSTpvpgpsvpppeelqvSpgpr - 1511
[32] = HMCES peptide 152 - sgsigaadSpenwek - 166
[33] = HSPA12A peptide 99 - tpttillTper - 109
[34] = INCENP peptide 259 - iaqvSpgprdSpafpdSpwrer - 280
[35] = KANSL1 peptide 955 - ttpqlgSanpSTpqpaSpdvssshslseyShgqSpr - 989
[36] = KIAA1522 peptide 509/569 - rpprSper - 517/576
[37] = KLF6 peptide 140 - lsssvtStppsSpelsrepsqlwgcvpgelpSpgkvr - 176
[38] = KMT2A peptide 3025 - nssTpglqvpvsptvpiqnqk - 3045
[39] = L3MBTL2 peptide 60 - eagelpTSplhllSpgTpr - 78
[40] = LARP4B peptide 725 - rlSreqSTppkSpq - 738
[41] = LASP1 peptide 60 - qsftmvadTpenlr - 73
[42] = LCOR peptide 1212 - arpstkTpessaaqr - 1226
[43] = LIMD1 peptide 190 - wgdkpgvSpSiglsvgsgwpSspgsdpplpkpcgdhplnhr - 230
[44] = LMNA peptide 12 - sgaqaSstplSptr - 25
[45] = LMO7 peptide 595/929 - YngdvedikrTpnnvvSTpapSpdasqlasslssqk - 630/964
[46] = LSM14B peptide 85 - aqhtlpqdpaivqsslgsasaSpfqphvpYSpfr - 118
[47] = MAP7 peptide 668 - vtvesTpdlekqpnengvsvqnenfeeiinlpigskpsr - 706
[48] = MCM4 peptide 38 - rgedststgelqpmptSpgvdlqSpaaqdvl - 68

Cn1cc(-c2ccc(-c3cncc(Cl)c3N3CCC4(CCNC4=O)CC3)cc2)cn1 [CCT251545]
CMPD 1/DMSO [1]: 1.802
MEAN MS SIGNAL CMPD 1 6 H [1]: 238204
CMPD 1/DMSO [2]: 1.997
MEAN MS SIGNAL CMPD 1 6 H [2]: 301575
CMPD 1/DMSO [3]: 0.569
MEAN MS SIGNAL CMPD 1 6 H [3]: 41850
CMPD 1/DMSO [4]: 0.512
MEAN MS SIGNAL CMPD 1 6 H [4]: 62532
CMPD 1/DMSO [5]: 0.589
MEAN MS SIGNAL CMPD 1 6 H [5]: 62950
CMPD 1/DMSO [6]: 2.069
MEAN MS SIGNAL CMPD 1 6 H [6]: 72000
CMPD 1/DMSO [7]: 0.526
MEAN MS SIGNAL CMPD 1 6 H [7]: 1231725
CMPD 1/DMSO [8]: 1.826
MEAN MS SIGNAL CMPD 1 6 H [8]: 26677
CMPD 1/DMSO [9]: 1.888
MEAN MS SIGNAL CMPD 1 6 H [9]: 33472
CMPD 1/DMSO [10]: 0.625
MEAN MS SIGNAL CMPD 1 6 H [10]: 70653
CMPD 1/DMSO [11]: 0.368
MEAN MS SIGNAL CMPD 1 6 H [11]: 55322
CMPD 1/DMSO [12]: 0.429
MEAN MS SIGNAL CMPD 1 6 H [12]: 15418
CMPD 1/DMSO [13]: 2.031
MEAN MS SIGNAL CMPD 1 6 H [13]: 849660
CMPD 1/DMSO [14]: 0.456
MEAN MS SIGNAL CMPD 1 6 H [14]: 51533
CMPD 1/DMSO [15]: 0.310
MEAN MS SIGNAL CMPD 1 6 H [15]: 35479
CMPD 1/DMSO [16]: 0.193
MEAN MS SIGNAL CMPD 1 6 H [16]: 31383
CMPD 1/DMSO [17]: 0.000
MEAN MS SIGNAL CMPD 1 6 H [17]: 0
abundance of phospho-peptide corresponding to phospho-STAT1 SER727 (COLO205, 350 nM, 6 h): decrease in abundance
phospho-peptides whose label-free intensities remained unchanged (COLO205, 350 nM, 6 h): 95%
phosphorylation at MED13 THR565, MED14 SER1112 and MED26 SER314 (COLO205, 350 nM, 6 h): reducing phosphorylation
phosphorylation of POLR2A CTD phospho-peptides (COLO205, 350 nM, 6 h): no evidence of decreased phosphorylation
number of phospho-peptides consistently decreased by > 1.5-fold (COLO205, 350 nM, 6 h, both independent biological repeats, 2,734 phospho-peptides identified): 123
number of individual proteins represented by the decreased phospho-peptides (COLO205, 350 nM, 6 h, > 1.5-fold decrease): 95
CMPD 1/DMSO [18]: 0.501
MEAN MS SIGNAL CMPD 1 6 H [18]: 22710
CMPD 1/DMSO [19]: 0.521
MEAN MS SIGNAL CMPD 1 6 H [19]: 184020
CMPD 1/DMSO [20]: 0.400
MEAN MS SIGNAL CMPD 1 6 H [20]: 23807
CMPD 1/DMSO [21]: 0.452
MEAN MS SIGNAL CMPD 1 6 H [21]: 16379
CMPD 1/DMSO [22]: 0.365
MEAN MS SIGNAL CMPD 1 6 H [22]: 24823
CMPD 1/DMSO [23]: 1.970
MEAN MS SIGNAL CMPD 1 6 H [23]: 31995
CMPD 1/DMSO [24]: 2.184
MEAN MS SIGNAL CMPD 1 6 H [24]: 196079
CMPD 1/DMSO [25]: 0.573
MEAN MS SIGNAL CMPD 1 6 H [25]: 86595
CMPD 1/DMSO [26]: 0.530
MEAN MS SIGNAL CMPD 1 6 H [26]: 311610
CMPD 1/DMSO [27]: 0.400
MEAN MS SIGNAL CMPD 1 6 H [27]: 48006
CMPD 1/DMSO [28]: 0.504
MEAN MS SIGNAL CMPD 1 6 H [28]: 66830
CMPD 1/DMSO [29]: 2.355
MEAN MS SIGNAL CMPD 1 6 H [29]: 187382
CMPD 1/DMSO [30]: 2.322
MEAN MS SIGNAL CMPD 1 6 H [30]: 104624
CMPD 1/DMSO [31]: 0.405
MEAN MS SIGNAL CMPD 1 6 H [31]: 16700
CMPD 1/DMSO [32]: 0.453
MEAN MS SIGNAL CMPD 1 6 H [32]: 63819
CMPD 1/DMSO [33]: 0.556
MEAN MS SIGNAL CMPD 1 6 H [33]: 24367
CMPD 1/DMSO [34]: 0.465
MEAN MS SIGNAL CMPD 1 6 H [34]: 323217
CMPD 1/DMSO [35]: 0.484
MEAN MS SIGNAL CMPD 1 6 H [35]: 12101
CMPD 1/DMSO [36]: 1.797
MEAN MS SIGNAL CMPD 1 6 H [36]: 115710
CMPD 1/DMSO [37]: 0.607
MEAN MS SIGNAL CMPD 1 6 H [37]: 32118
CMPD 1/DMSO [38]: 2.063
MEAN MS SIGNAL CMPD 1 6 H [38]: 28229
CMPD 1/DMSO [39]: 0.490
MEAN MS SIGNAL CMPD 1 6 H [39]: 91427
CMPD 1/DMSO [40]: 2.299
MEAN MS SIGNAL CMPD 1 6 H [40]: 120169
CMPD 1/DMSO [41]: 0.584
MEAN MS SIGNAL CMPD 1 6 H [41]: 786663
CMPD 1/DMSO [42]: 0.545
MEAN MS SIGNAL CMPD 1 6 H [42]: 120796
CMPD 1/DMSO [43]: 0.471
MEAN MS SIGNAL CMPD 1 6 H [43]: 25519
CMPD 1/DMSO [44]: 0.517
MEAN MS SIGNAL CMPD 1 6 H [44]: 46469
CMPD 1/DMSO [45]: 0.463
MEAN MS SIGNAL CMPD 1 6 H [45]: 25654
CMPD 1/DMSO [46]: 0.523
MEAN MS SIGNAL CMPD 1 6 H [46]: 38083
CMPD 1/DMSO [47]: 0.544
MEAN MS SIGNAL CMPD 1 6 H [47]: 159179
CMPD 1/DMSO [48]: 0.432
MEAN MS SIGNAL CMPD 1 6 H [48]: 77526
CMPD 1/DMSO (MCM4 peptide 69 - fSsppqmhssaipldfdvSsplTygtpssr - 98): 0.605

Source: publication PMC12281475, “Mediator Kinase Inhibitor Selectivity and Activity in Colorectal Cancer” (ACS Chemical Biology, 2025)
